Results published in ChEMBL document CHEMBL4393689, “Discovery of fluorescent coumarin-benzo[b]thiophene 1, 1-dioxide conjugates as mitochondria-targeting antitumor STAT3 inhibitors” (Eur J Med Chem, 2019).
The source made the active and inactive calls. The calls are words filed in the database; no cut-off is given here.

Legend:
[1] = target: Signal transducer and activator of transcription 3 (Homo sapiens) (UniProt P40763); experiment: Inhibition of STAT3 in human MDA-MB-231 cells assessed as decrease in STAT3-DNA binding at 1 to 4 uM incubated for 24 hrs by electrophoretic mobility shift assay; type: cell-based
MDA-MB-231 [2] = experiment: Induction of apoptosis in human MDA-MB-231 cells assessed as viable cells at 1 uM incubated for 24 hrs by annexinV-FITC and propidium iodide staining based flow cytometric analysis (reference value: 95.1%); type: functional; details: MDA-MB-231, 24 h, read-out: Activity
MDA-MB-231 [3] = experiment: Antiproliferative activity against human MDA-MB-231 cells assessed as reduction in cell viability incubated for 48 hrs by MTT assay; type: functional, cell-based; details: MDA-MB-231, 48 h
MCF7 [4] = experiment: Antiproliferative activity against human MCF7 cells assessed as reduction in cell viability incubated for 48 hrs by MTT assay; type: functional, cell-based; details: MCF7, 48 h
MDA-MB-231 [5] = experiment: Potency index, ratio of IC50 of BTP to ratio of IC50 of compound for antiproliferative activity against human MDA-MB-231 cells assessed as reduction in cell viability incubated for 48 hrs by MTT assay; type: functional
HCT-116 = experiment: Potency index, ratio of IC50 of BTP to ratio of IC50 of compound for antiproliferative activity against human HCT116 cells assessed as reduction in cell viability incubated for 48 hrs by MTT assay; type: functional
MCF7 [6] = experiment: Potency index, ratio of IC50 of BTP to ratio of IC50 of compound for antiproliferative activity against human MCF7 cells assessed as reduction in cell viability incubated for 48 hrs by MTT assay; type: functional
MCF-10A = experiment: Cytotoxicity against human MCF10A cells assessed as reduction in cell viability incubated for 48 hrs by MTT assay; type: cell-based
[7] = Selectivity index, ratio of IC50 for human MCF10A cells to IC50 for human MDA-MB-231 cells; type: toxicity; details: MCF10A cells versus MDA-MB-231 cells, read-out: Ratio IC50
[8] = Selectivity index, ratio of IC50 for human L02 cells to IC50 for human HepG2 cells; type: toxicity; details: L02 cells versus HepG2 cells, read-out: Ratio IC50
MDA-MB-231 [9] = experiment: Inhibition of colony formation in human MDA-MB-231 cells assessed as reduction in cell proliferation at 1 uM treated for 24 hrs and measured after 10 to 14 days by crystal violet staining based assay; type: functional
MDA-MB-231 [10] = experiment: Induction of apoptosis in human MDA-MB-231 cells assessed as necrotic cells at 1 uM incubated for 24 hrs by annexinV-FITC and propidium iodide staining based flow cytometric analysis (reference value: 0.8%); type: functional
MDA-MB-231 [11] = experiment: Induction of apoptosis in human MDA-MB-231 cells assessed as viable cells at 2 uM incubated for 24 hrs by annexinV-FITC and propidium iodide staining based flow cytometric analysis (reference value: 95.1%); type: functional; details: MDA-MB-231, 24 h, read-out: Activity
MDA-MB-231 [12] = experiment: Induction of apoptosis in human MDA-MB-231 cells assessed as late apoptotic cells at 2 uM incubated for 24 hrs by annexinV-FITC and propidium iodide staining based flow cytometric analysis (reference value: 1.0%); type: functional
MDA-MB-231 [13] = experiment: Induction of apoptosis in human MDA-MB-231 cells assessed as necrotic cells at 2 uM incubated for 24 hrs by annexinV-FITC and propidium iodide staining based flow cytometric analysis (reference value: 0.8%); type: functional
MDA-MB-231 [14] = experiment: Induction of apoptosis in human MDA-MB-231 cells assessed as viable cells at 4 uM incubated for 24 hrs by annexinV-FITC and propidium iodide staining based flow cytometric analysis (reference value: 95.1%); type: functional; details: MDA-MB-231, 24 h, read-out: Activity
MDA-MB-231 [15] = experiment: Induction of apoptosis in human MDA-MB-231 cells assessed as early apoptotic cells at 4 uM incubated for 24 hrs by annexinV-FITC and propidium iodide staining based flow cytometric analysis (reference value: 3.2%); type: functional
MDA-MB-231 [16] = experiment: Induction of apoptosis in human MDA-MB-231 cells assessed as late apoptotic cells at 4 uM incubated for 24 hrs by annexinV-FITC and propidium iodide staining based flow cytometric analysis (reference value: 1.0%); type: functional
MDA-MB-231 [17] = experiment: Induction of apoptosis in human MDA-MB-231 cells incubated for 24 hrs by annexinV-FITC and propidium iodide staining based flow cytometric analysis; type: functional, cell-based
MDA-MB-231 [18] = experiment: Induction of apoptosis in human MDA-MB-231 cells assessed as increase in cleaved caspase-9 levels at 1 to 4 uM incubated for 24 hrs by Western blot analysis; type: functional, cell-based
MDA-MB-231 [19] = experiment: Induction of apoptosis in human MDA-MB-231 cells assessed as increase in cleaved caspase-3 levels at 1 to 4 uM incubated for 24 hrs by Western blot analysis; type: functional, cell-based
MDA-MB-231 [20] = experiment: Induction of apoptosis in human MDA-MB-231 cells assessed as increase in cleaved PARP levels at 1 to 4 uM incubated for 24 hrs by Western blot analysis; type: functional, cell-based
[21] = Drug accumulation in mitochondria of human MDA-MB-231 cells at 2 uM incubated for 60 mins by mitotracker red staining based confocal microscopy; type: ADME; details: mda-mb-231, 1 h
MDA-MB-231 [22] = experiment: Induction of mitochondrial membrane depolarization in human MDA-MB-231 cells assessed as increase in green fluorescence incubated for 24 hrs JC-1 staining based flow cytometric analysis; type: functional, cell-based
MDA-MB-231 [23] = experiment: Induction ROS accumulation in human MDA-MB-231 cells after 24 hrs by DCFH-DA staining-based flow cytometric analysis; type: functional, cell-based
[24] = target: Signal transducer and activator of transcription 3 (Homo sapiens) (UniProt P40763); experiment: Inhibition of STAT3 in human MDA-MB-231 cells assessed as decrease in STAT3 phosphorylation at Tyr705 residue incubated for 24 hrs by Western blot analysis; type: cell-based
[25] = target: Signal transducer and activator of transcription 3 (Homo sapiens) (UniProt P40763); experiment: Inhibition of STAT3 in human MDA-MB-231 cells assessed as decrease in STAT3 phosphorylation at Ser727 residue incubated for 24 hrs by Western blot analysis; type: cell-based
MDA-MB-231 [26] = experiment: Effect on total STAT3 expression in human MDA-MB-231 cells at 1 to 4 uM incubated for 24 hrs by Western blot analysis; type: ADME, cell-based; details: mda-mb-231, 24 h
[27] = target: Mitogen-activated protein kinase; ERK1/ERK2 (Homo sapiens) (UniProt P27361+P28482); experiment: Inhibition of ERK 1/2 in human MDA-MB-231 cells assessed as reduction in ERK 1/2 phosphorylation at 1 to 4 uM incubated for 24 hrs by Western blot analysis; type: cell-based
4T1 [28] = experiment: Antitumor activity against mouse 4T1 cells implanted in BALB/c mouse assessed as reduction in tumor volume at 20 mg/kg, ip for 14 days; type: functional; details: 4T1, ip, 336 h
4T1 [29] = experiment: Antitumor activity against mouse 4T1 cells implanted in BALB/c mouse assessed as reduction in tumor weight at 10 mg/kg, ip for 14 days; type: functional; details: 4T1, ip, 336 h
4T1 [30] = experiment: Antitumor activity against mouse 4T1 cells implanted in BALB/c mouse assessed as reduction in tumor weight at 20 mg/kg, ip for 14 days; type: functional; details: 4T1, ip, 336 h
MDA-MB-231 [31] = experiment: Inhibition of colony formation in human MDA-MB-231 cells at 2 uM treated for 24 hrs and measured after 10 to 14 days by crystal violet staining based assay; type: functional
4T1 [32] = experiment: Reduction in STAT3 phosphorylation at Tyr705 residue in mouse 4T1 cells implanted in BALB/c mouse at 10 to 20 mg/kg, ip for 14 days by Western blot analysis; type: functional, organism-based

Signal transducer and activator of transcription 3 (Homo sapiens), sequence (P40763 whole entry): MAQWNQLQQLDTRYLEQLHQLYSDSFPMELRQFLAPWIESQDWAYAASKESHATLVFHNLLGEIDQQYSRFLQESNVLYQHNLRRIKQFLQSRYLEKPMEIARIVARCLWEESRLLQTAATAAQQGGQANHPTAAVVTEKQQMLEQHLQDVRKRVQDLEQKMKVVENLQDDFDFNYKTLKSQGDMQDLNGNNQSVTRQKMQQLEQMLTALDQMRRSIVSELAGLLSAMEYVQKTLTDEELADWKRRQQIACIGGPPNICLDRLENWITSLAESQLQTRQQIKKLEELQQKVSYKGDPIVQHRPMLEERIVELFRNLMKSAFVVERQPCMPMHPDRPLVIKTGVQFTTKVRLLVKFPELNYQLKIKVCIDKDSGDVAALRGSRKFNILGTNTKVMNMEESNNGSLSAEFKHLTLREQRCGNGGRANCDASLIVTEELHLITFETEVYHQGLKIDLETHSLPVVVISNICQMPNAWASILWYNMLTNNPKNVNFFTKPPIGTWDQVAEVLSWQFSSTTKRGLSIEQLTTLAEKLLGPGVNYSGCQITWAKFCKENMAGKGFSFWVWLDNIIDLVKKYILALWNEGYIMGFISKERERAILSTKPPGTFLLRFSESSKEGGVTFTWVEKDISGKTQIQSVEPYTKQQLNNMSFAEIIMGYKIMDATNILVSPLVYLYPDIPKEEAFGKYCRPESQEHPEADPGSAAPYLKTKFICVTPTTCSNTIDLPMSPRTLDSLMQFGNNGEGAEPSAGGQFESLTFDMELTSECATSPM
Mitogen-activated protein kinase; ERK1/ERK2 (Homo sapiens), sequence (P27361 whole entry, looked up): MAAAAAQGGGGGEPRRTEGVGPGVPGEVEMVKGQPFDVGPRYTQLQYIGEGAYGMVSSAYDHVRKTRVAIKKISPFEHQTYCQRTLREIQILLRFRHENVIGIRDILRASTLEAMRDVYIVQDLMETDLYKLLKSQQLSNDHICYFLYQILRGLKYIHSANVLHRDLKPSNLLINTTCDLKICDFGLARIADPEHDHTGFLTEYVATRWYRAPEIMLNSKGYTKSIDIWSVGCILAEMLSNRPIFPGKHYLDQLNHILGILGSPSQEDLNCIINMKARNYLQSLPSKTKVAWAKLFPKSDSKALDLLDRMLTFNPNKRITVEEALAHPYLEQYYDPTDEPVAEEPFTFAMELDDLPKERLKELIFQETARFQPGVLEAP
Mitogen-activated protein kinase; ERK1/ERK2 (Homo sapiens), sequence (P28482 whole entry, looked up): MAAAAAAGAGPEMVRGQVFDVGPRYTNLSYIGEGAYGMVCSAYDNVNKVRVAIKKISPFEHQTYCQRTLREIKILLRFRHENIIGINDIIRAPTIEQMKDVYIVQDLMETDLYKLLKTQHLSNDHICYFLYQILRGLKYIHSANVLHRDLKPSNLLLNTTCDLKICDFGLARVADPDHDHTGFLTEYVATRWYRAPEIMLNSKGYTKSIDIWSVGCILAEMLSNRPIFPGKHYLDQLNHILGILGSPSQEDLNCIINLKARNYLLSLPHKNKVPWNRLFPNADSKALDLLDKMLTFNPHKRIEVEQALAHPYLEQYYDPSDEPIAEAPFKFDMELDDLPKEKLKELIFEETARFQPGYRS

In the case of CCN(CC)c1ccc2cc(C(=O)N3CCN(C(=O)C4=Cc5c(Br)cccc5S4(=O)=O)CC3)c(=O)oc2c1, the inhibition [1] is reported as “Active”, the viability at 1 µM (MDA-MB-231 [2]) is reported as 92% and the IC50 (MDA-MB-231 [3]) is reported as 1430 nM. The IC50 (MCF7 [4]) was 3.33 µM, the “Ratio IC50” value (MDA-MB-231 [5]) was 4.6 - 19 and the “Ratio IC50” value (HCT-116) was 4.6 - 19. The “Ratio IC50” value (MCF7 [6]) was 4.6 - 19, the IC50 (MCF-10A) was 14.6 µM and the selectivity ratio [7] was 10.2. The selectivity ratio [8] was 12.4, the inhibition (MDA-MB-231 [9]) was “Active” and the Activity (MDA-MB-231 [10]) was 1.3%. It also gave a viability at 2 µM (MDA-MB-231 [11]) of 89.3%, an Activity (MDA-MB-231 [12]) of 1.8% and an Activity (MDA-MB-231 [13]) of 1.6%. For the same compound, the viability at 4 µM (MDA-MB-231 [14]) was 77.5%, the Activity (MDA-MB-231 [15]) was 15.6% and the Activity (MDA-MB-231 [16]) was 4.8%. The Activity (MDA-MB-231 [17]) was “Dose-dependent effect”, the Activity (MDA-MB-231 [18]) was “Active” and the Activity (MDA-MB-231 [19]) was “Active”. For the same compound, the Activity (MDA-MB-231 [20]) was “Active”, the Drug uptake [21] was “Active” and the Activity (MDA-MB-231 [22]) was “Dose-dependent effect”. The Activity (MDA-MB-231 [23]) was “Dose-dependent effect”, the inhibition [24] was “Dose-dependent effect” and the inhibition [25] was “Dose-dependent effect”. The Activity (MDA-MB-231 [26]) was “Non-Toxic”, the inhibition [27] was “inactive” and the inhibition in vivo at 20 mg/kg (4T1 [28]) was 61.2%. It also gave an inhibition in vivo at 10 mg/kg (4T1 [29]) of 39.7%, an inhibition in vivo at 20 mg/kg (4T1 [30]) of 56.9% and an inhibition at 2 µM (MDA-MB-231 [31]) of 100%. The inhibition (4T1 [32]) was “Active”.
